Here are results for 26 compounds from patent US9975903B2, “Condensed heterocyclic compound” (Takeda Pharmaceutical Company Limited, priority 2014, dated 2018).

Structures can show the parent of a compound that is named as a salt.

Usually inhibition stands for the change of the read-out against control, counted positive when it falls.

For this experiment, the target named is T1, Human recombinant enteropeptidase (Homo sapiens, UniProt P98073).
T1 construct: purchased ITSI-Biosciences LLC #REN-260
T1 sequence (P98073 whole entry): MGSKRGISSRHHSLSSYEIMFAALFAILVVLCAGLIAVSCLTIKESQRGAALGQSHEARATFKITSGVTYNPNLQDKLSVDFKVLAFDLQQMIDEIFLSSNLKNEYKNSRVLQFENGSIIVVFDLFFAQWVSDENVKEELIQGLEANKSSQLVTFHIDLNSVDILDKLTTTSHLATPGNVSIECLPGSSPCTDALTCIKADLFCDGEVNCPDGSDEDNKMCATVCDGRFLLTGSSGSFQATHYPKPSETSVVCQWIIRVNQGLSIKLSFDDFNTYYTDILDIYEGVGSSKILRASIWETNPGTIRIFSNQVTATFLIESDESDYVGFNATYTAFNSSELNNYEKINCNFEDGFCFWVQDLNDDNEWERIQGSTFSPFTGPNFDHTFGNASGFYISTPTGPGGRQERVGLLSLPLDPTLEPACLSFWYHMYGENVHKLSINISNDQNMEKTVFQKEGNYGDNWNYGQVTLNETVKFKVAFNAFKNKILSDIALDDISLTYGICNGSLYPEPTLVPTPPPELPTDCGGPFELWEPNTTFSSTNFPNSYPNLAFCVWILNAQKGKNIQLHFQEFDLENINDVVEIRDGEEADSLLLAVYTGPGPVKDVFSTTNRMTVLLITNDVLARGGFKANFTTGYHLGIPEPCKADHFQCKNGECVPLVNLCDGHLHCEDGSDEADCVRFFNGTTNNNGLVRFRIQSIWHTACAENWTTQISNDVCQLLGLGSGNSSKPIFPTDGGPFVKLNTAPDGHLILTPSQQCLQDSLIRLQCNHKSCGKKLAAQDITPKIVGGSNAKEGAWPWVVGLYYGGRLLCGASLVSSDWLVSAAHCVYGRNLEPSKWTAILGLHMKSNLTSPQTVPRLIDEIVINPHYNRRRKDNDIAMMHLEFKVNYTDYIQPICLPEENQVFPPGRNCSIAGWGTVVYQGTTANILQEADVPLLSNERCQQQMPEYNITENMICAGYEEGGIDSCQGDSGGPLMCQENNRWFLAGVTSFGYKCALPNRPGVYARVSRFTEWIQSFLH
In words: Human enteropeptidase inhibitory activity (Test Example 1). Type of experiment: biochemical. Conditions: 3.3 μM test compound; inhibition rate from fluorescence intensity at 2 hours after the start of the reaction; read-out: 3.3 μM Inhibition. Here is the method:
Human recombinant enteropeptidase (#REN-260, ITSI-Biosciences LLC) was diluted with an assay buffer (50 mM Tricine, pH 8.0, 0.01 (w/v) %, Tween 20, 10 mM CaCl2) to prepare a 24 mU/mL enzyme solution. Subsequently, 5FAM-Abu-Gly-Asp-Asp-Asp-Lys-Ile-Val-Gly-Gly-Lys(CPQ2)-Lys-Lys-NH2 (SEQ ID NO: 1, purity: 97.2%, CPC Scientific Inc.) was diluted with the assay buffer to prepare a 2.1 μM substrate solution. A test compound is dissolved in DMSO into a 1 mM solution, and the solution was diluted by 100-fold with the assay buffer to give a compound solution. To a 384-well black plate (#784076, Greiner Bio-One), 5 μL of the compound solution and 5 μL of the substrate solution were added and mixed, and 5 μL of the enzyme solution was then added to the mixture, followed by mixing to start the reaction. The fluorescence intensity was measured with a fluorescence plate reader EnVision (The Perkin-Elmer Corp.) at an excitation wavelength of 485 nm and a fluorescence wavelength of 535 nm. The same reaction as above except that the test compound was not contained was performed (test compound non-addition group). Furthermore, the same reaction as above except that the test compound and the enzyme were not contained was performed (control group). The inhibition rate was calculated using the fluorescence intensity at 2 hours after the start of the reaction by the following expression: Inhibition rate (%)=(1−((fluorescence intensity of test compound addition group)−(fluorescence intensity of control group))/((fluorescence intensity of test compound non-addition group)−(fluorescence intensity of control group)))×100
Turning to `N=C(N)Nc1ccc2c(c1)OCCc1cc(CCC(=O)N[C@@H](CC(=O)O)C(=O)O)ccc1OC2=O` [Example 50, N-(3-(9-Carbamimidamido-6-oxo-12,13-dihydro-6H-dibenzo[b,f][1,5]dioxonin-2-yl)propanoyl)-L-aspartic acid trifluoroacetate], the inhibition at 3.3 µM was determined as 101%.

With `N=C(N)c1ccc2c(c1)CCc1c(C(=O)N[C@@H](CC(=O)O)C(=O)O)cccc1C(=O)O2` [Example 62, N-((2-Carbamimidoyl-6-oxo-11,12-dihydro-6H-dibenzo[b,f]oxocin-10-yl)carbonyl)-L-aspartic acid trifluoroacetate], the inhibition at 3.3 µM amounted to 84%.

Consider `N=C(N)Nc1ccc2c(c1)CCCCc1c(cccc1C(=O)N[C@@H](CC(=O)O)C(=O)O)OC2=O` [Example 37, N-((3-Carbamimidamido-14-oxo-5,7,8,14-tetrahydro-6H-dibenzo[b,h]oxecin-9-yl)carbonyl)-L-aspartic acid], for which the inhibition at 3.3 µM was found to be 101%.

In the case of `N=C(N)Nc1ccc2c(c1)CCCOc1c(cccc1C(=O)NCC(=O)O)OC2=O` [Example 89, N-((10-carbamimidamido-13-oxo-6,7,8,13-tetrahydro-dibenzo[b,f] [1,4]dioxecin-4-yl)carbonyl)glycine], the inhibition at 3.3 µM was 101%.

For the compound `N=C(N)Nc1ccc2c(c1)CCCOc1c(ccc(CCC(=O)N(CC(=O)O)CC(=O)O)c1C(=O)N[C@@H](Cc1ccc(O)cc1)C(=O)O)OC2=O` [Example 124, N-((3-(3-(bis(carboxymethyl)amino)-3-oxopropyl)-10-carbamimidamido-13-oxo-6,7,8,13-tetrahydro-dibenzo[b,f] [1,4]dioxecin-4-yl)carbonyl)-L-tyrosine], the inhibition at 3.3 µM amounted to 101%.

As for `N=C(N)Nc1ccc2c(c1)CCCOc1c(cccc1C(=O)NCCC(=O)O)OC2=O` [Example 88, N-((10-carbamimidamido-13-oxo-6,7,8,13-tetrahydro-dibenzo[b,f] [1,4]dioxecin-4-yl)carbonyl)-beta-alanine], the inhibition at 3.3 µM came out at 102%.

As for `C[C@@H](O)[C@H](NC(=O)c1cccc2c1OCCCc1cc(NC(=N)N)ccc1C(=O)O2)C(=O)O` [Example 90, N-((10-carbamimidamido-13-oxo-6,7,8,13-tetrahydro-dibenzo[b,f] [1,4]dioxecin-4-yl)carbonyl)-L-threonine], the inhibition at 3.3 µM came to 101%.

As to `COc1ccc(C[C@H](NC(=O)c2c(CCC(=O)N(CC(=O)O)CC(=O)O)ccc3c2OCCCc2cc(NC(=N)N)ccc2C(=O)O3)C(=O)O)cc1` [Example 130, N-((3-(3-(bis(carboxymethyl)amino)-3-oxopropyl)-10-carbamimidamido-13-oxo-6,7,8,13-tetrahydro-dibenzo[b,f] [1,4]dioxecin-4-yl)carbonyl)-O-methyl-L-tyrosine], the inhibition at 3.3 µM came to 99%.

With `N=C(N)Nc1ccc2c(c1)CCCOc1ccccc1OC2=O` [Example 68, 1-(13-Oxo-6,7,8,13-tetrahydrodibenzo[b,f][1,4]dioxecin-10-yl)guanidine trifluoroacetate], the inhibition at 3.3 µM stood at 83%.

As to `COC(=O)CN(C(=O)c1cccc2c1OCCCc1cc(NC(=N)N)ccc1C(=O)O2)[C@@H](CC(=O)O)C(=O)O` [Example 139, N-((10-carbamimidamido-13-oxo-6,7,8,13-tetrahydro-dibenzo[b,f] [1,4]dioxecin-4-yl)carbonyl)-N-(2-methoxy-2-oxoethyl)-L-aspartic acid], the inhibition at 3.3 µM came out at 100%.

For `N=C(N)Nc1ccc2c(c1)CCCOc1c(cccc1C1=NO[C@@](CC(=O)O)(C(=O)O)C1)OC2=O` (stereo in doubt) [Example 22, 3-(10-Carbamimidamido-13-oxo-6,7,8,13-tetrahydrodibenzo[b,f][1,4]dioxecin-4-yl)-5-(carboxymethyl)-4,5-dihydro-1,2-oxazole-5-carboxylic acid], the inhibition at 3.3 µM was found to be 101%.

For the compound `N=C(N)Nc1ccc2c(c1)CCc1ccc(CCC(=O)N[C@@H](CC(=O)O)C(=O)O)cc1OC2=O` [Example 55, N-(3-(9-carbamimidamido-6-oxo-11,12-dihydro-6H-dibenzo[b,f]oxocin-3-yl)propanoyl)-L-aspartic acid], the inhibition at 3.3 µM was found to be 98%.

In the case of `N=C(N)Nc1ccc2c(c1)CCCCc1c(cccc1C(=O)NC(CC(=O)O)CC(=O)O)OC2=O` [Example 74, 3-(((3-carbamimidamido-14-oxo-5,7,8,14-tetrahydro-6H-dibenzo[b,h]oxecin-9-yl)carbony)amino)pentanedioic acid], the inhibition at 3.3 µM was 101%.

Take `N=C(N)Nc1ccc2c(c1)CCCOc1c(cccc1C(=O)N(CC(=O)O)Cc1cc(C(=O)O)cc(C(=O)O)c1)OC2=O` [Example 146, 5-((((10-carbamimidamido-13-oxo-6,7,8,13-tetrahydro-dibenzo[b,f] [1,4]dioxecin-4-yl)carbonyl)-(carboxy-methyl)-amino)methyl) isophthalic acid]: the inhibition at 3.3 µM was 102%.

Take `N=C(N)Nc1ccc2c(c1)CCCCc1c(CCC(=O)N[C@@H](CC(=O)O)C(=O)O)cccc1OC2=O` [Example 83, N-(3-(3-carbamimidamido-14-oxo-5,7,8,14-tetrahydro-6H-dibenzo[b,h]oxecin-9-yl)propanoyl)-L-aspartic acid]: the inhibition at 3.3 µM turned out to be 102%.

For `N=C(N)Nc1ccc2c(c1)CCCCc1c(OCC(=O)N[C@@H](CC(=O)O)C(=O)O)cccc1OC2=O` [Example 31, N-(((3-carbamimidamido-14-oxo-5,7,8,14-tetrahydro-6H-dibenzo[b,h]oxecin-9-yl)oxy)acetyl)-L-aspartic acid], the inhibition at 3.3 µM turned out to be 101%.

Turning to `COc1cc2c(c(C(=O)N[C@@H](CC(=O)O)C(=O)O)c1)CCCCc1cc(NC(=N)N)ccc1C(=O)O2` [Example 67, N-((3-Carbamimidamido-11-methoxy-14-oxo-5,7,8,14-tetrahydro-6H-dibenzo[b,h]oxecin-9-yl)carbonyl)-L-aspartic acid], the inhibition at 3.3 µM stood at 100%.

As for `N=C(N)c1ccc2c(c1)CCc1c(CCC(=O)N[C@@H](CC(=O)O)C(=O)O)cccc1C(=O)O2` [Example 61, N-(3-(2-Carbamimidoyl-6-oxo-11,12-dihydro-6H-dibenzo[b,f]oxocin-10-yl)propanoyl)-L-aspartic acid trifluoroacetate], the inhibition at 3.3 µM came out at 72%.

For `N=C(N)Nc1ccc2c(c1)CCCOc1c(cccc1C(=O)NCC(=O)N[C@@H](CC(=O)O)C(=O)O)OC2=O` [Example 100, N-((10-carbamimidamido-13-oxo-6,7,8,13-tetrahydro-dibenzo[b,f] [1,4]dioxecin-4-yl)carbonyl)glycyl-L-aspartic acid], the inhibition at 3.3 µM stood at 101%.

As to `N=C(N)Nc1ccc2c(c1)CCCOc1c(cccc1C(=O)NCCS(=O)(=O)O)OC2=O` [Example 28, 2-(((10-carbamimidamido-13-oxo-6,7,8,13-tetrahydro-dibenzo[b,f] [1,4]dioxecin-4-yl)carbonyl)amino) ethanesulfonic acid], the inhibition at 3.3 µM is 102%.

As to `CN(C(=O)c1cccc2c1OCCCc1cc(NC(=N)N)ccc1C(=O)O2)[C@@H](CC(=O)O)C(=O)O` [Example 85, N-((10-carbamimidamido-13-oxo-6,7,8,13-tetrahydrodibenzo[b,f] [1,4]dioxecin-4-yl)carbonyl)-N-methyl-L-aspartic acid], the inhibition at 3.3 µM amounted to 101%.

As to `N=C(N)Nc1ccc2c(c1)CCCOc1c(cccc1C(=O)N(CC(=O)O)Cc1ccc(CC(=O)O)cc1)OC2=O` [Example 142, N-((10-carbamimidamido-13-oxo-6,7,8,13-tetrahydro-dibenzo[b,f] [1,4]dioxecin-4-yl)carbonyl)-N-(4-(carboxymethyl)benzyl)glycine], the inhibition at 3.3 µM was found to be 98%.

As to `N=C(N)Nc1ccc2c(c1)CCCOc1c(cccc1C(=O)N1CCC[C@H]1C(=O)O)OC2=O` [Example 12, 1-((10-carbamimidamido-13-oxo-6,7,8,13-tetrahydro-dibenzo[b,f] [1,4]dioxecin-4-yl)carbonyl)-L-proline], the inhibition at 3.3 µM was determined as 101%.

For the compound `N=C(N)Nc1ccc2c(c1)CCCOc1ccc(CCC(=O)N[C@@H](CC(=O)O)C(=O)O)cc1OC2=O` [Example 78, N-(3-(10-carbamimidamido-13-oxo-6,7,8,13-tetrahydro-dibenzo[b,f] [1,4]dioxecin-2-yl)propanoyl) aspartic acid], the inhibition at 3.3 µM stood at 93%.

As for `N=C(N)Nc1ccc2c(c1)CCCCc1c(cccc1C(=O)O)OC2=O` [Example 34, 3-carbamimidamido-14-oxo-6,7,8,14-tetrahydro-6H-dibenzo[b, h]oxecine-9-carboxylic acid], the inhibition at 3.3 µM turned out to be 75%.

Consider `N#Cc1cc2c(c(C(=O)N[C@@H](CC(=O)O)C(=O)O)c1)OCCCc1cc(NC(=N)N)ccc1C(=O)O2` [Example 114, N-((10-Carbamimidamido-2-cyano-13-oxo-6,7,8,13-tetrahydrodibenzo[b,f][1,4]dioxecin-4-yl)carbonyl)-L-aspartic acid], for which the inhibition at 3.3 µM is 99%.
